Measured values: article PMC6278385, “Preclinical Pharmacokinetics of C118P, a Novel Prodrug of Microtubules Inhibitor and Its Metabolite C118 in Mice, Rats, and Dogs” (Molecules, 2018)
Where two headings read alike, the source gives them in different places.

Experiments:
[1] = PK in tumor-bearing nude mice after i.v. C118P; format: in vivo, nude mice (BALB/cA) implanted with NCI-H460 tumor; conditions: for concentration at 2 min: read-out: C2min
Description: The nude mice (BALB/cA) implanted with NCI-H460 tumor were provided by Shanghai Institute of Materia Medica. A total of 36 mice were divided into 9 groups with four animals in each group. After fasting overnight with free access to water, the mice were treated with 75 mg/kg C118P by i.v. The blood samples were collected at 2, 10, 20, 40 min, 1, 2, 4, 8, 12 h after treatment and the mice were anaesthetized and decapitated to obtain the blood and tumor tissue. Blood, brain, muscle, ovary, and lung from mice in the PK study were collected at 10 min, 1, 4, and 12 h. Tissues were cleaned by absorbent filter paper to remove the blood. Bloods were centrifuged at 10,000× g for 5 min. Each tissue (0.2 g) was homogenized with 2 mL water. The plasma samples and the homogenates were then processed and determined by the method described above. The concentration was determined by the calibration curve and the actual concentration was corrected by multiplying by 10 according to the dilution times.
The area under the plasma-concentration-versus-time curve from 0 to infinite (AUC0-inf), the elimination half-life (t1/2), the systemic plasma clearance (CL) and the volume of distribution (V) were calculated by non-compartmental analysis with WinNonlin software v6.3 (Pharsight Corporation, St. Louis, MO 63144, USA) from the plasma concentration data of C118P and C118, respectively. The instantaneous concentrations after intravenous to rats (C30s) or dogs (C2min) were obtained directly from the observed data.

[2] = Stability in plasma with EDTA as anticoagulant; format: in vitro ADME
[3] = Metabolic stability in liver microsomes; format: in vitro ADME, rat
Description: The in vitro metabolic stability of C118P and C118 were estimated in mice, rat, dog, monkey, and human liver microsomes (Research Institute for Liver Diseases Co. Ltd (Shanghai, China)). The incubation mixture contains C118P or C118, NADP (1.0 mM), G-6-P (10 mM), PDH (2 units/mL), MgCl2 (10 mM), and liver microsomes (mice, rats, dogs, monkeys, or humans, 1.0 mg protein/mL) in phosphate buffer. A total of 200 μL of the mixture was removed and quenched with 600 μL acetonitrile in an ice bath at 0, 15, 30, 60, 120, and 240 min after the addition of NADPH.
CLint, in vitro (the in vitro intrinsic clearance, Equation (1)) was calculated from the t1/2 of C118 disappearance, where Cprotein is the protein concentration during the incubation, and t1/2 was determined by the slope (k) of the log-linear regression analysis of the concentration versus time profiles; thus, t1/2 = ln2/k. […] The in vivo hepatic clearance (CLH, Equation (3)) was then calculated by using CLint and hepatic blood flow, Q ([…] mL·min^−1·kg^−1 in rats, dogs, monkey, and humans, respectively), in the well-stirred liver model disregarding all binding. The hepatic extraction ratio was calculated as CLH divided by Q. CLint, in vitro = (0.693/t1/2) × (1/Cprotein)(1) CLint = CLint, in vitro × (mg protein/g liver weight) × (gliver weight/kg body weight)(2) CLH = (Q × CLint)/(Q + CLint)(3)

[4] = Tandem two-compartment PK model of C118P and C118; format: in vivo, rat; conditions: for K12 / K21 / V1 / K10: rat; for K12 / K21 / V1: two-compartmental model parameter (Table S1); for K10: two-compartmental model, K10 supposed to be transformation rate of C118P into C118, simulated
Source text: Due to the rapid transformation of C118P into C118, there is no direct way to calculate the rate of transformation, thus a two-compartment model with metabolism involved was developed (Figure S3). The transformation rate from C118P into C118 was simulated by fitting the two-serial data of prodrug C118P and C118 in rats and dogs.
3. The pharmacokinetic profile of C118P and C118 was simulated by two compartmental models. To simplify the model, the excretion rate of C118P from central compartment was supposed to be zero. In this model, both C118P and C118 were described by two-compartmental model, with elimination rate of k(0,3) for C118. The connection between C118P and C118 is by the uniflow of transformation rate of k(3,1) since the metabolism of C118P to C118 is irreversible(Figure S3).
Figure S3. The pharmacokinetic model of C118P and C118 in rat after i.v C118P. ex1: the injection dose of C118P, s1: concentration of C118 in central compartment. s2: concentration of C118 in central compartment, q1 and q3 represent the central compartment of C118P and C118, respectively.
The q2 and q4 represent the peripheral compartment of C118P and C118, respectively. k(0,3) represents the elimination rate of C118 from central compartment. k(3,1) represents the transformation rate of C118P to C118. k(2,1) and k(4,3) represent the distribution rate of C118P and C118 from central compartment to peripheral compartment. k(1,2) and k(3,4) represent the return rate of C118P and C118 from peripheral compartment to central compartment.
For prodrug pharmacokinetic prediction, the transformation of prodrug to the active drug should be studied in different system to get the right data. With the help of modeling, the transformation ratio of C118P to C118 was calculated by a tandem two-compartment model (SAAMII, University of Washington). In simulation study, the initial parameters are very important for accurate prediction.
The initial compartmental model parameters of rat and dog were first evaluated by Winnonlin using two-compartmental model at low dose, with intravenous for C118P and extra vessel for C118 since […]
(1 picture or pasted object on this page, not shown here)
C118 was transformed from C118P. The initial parameters used in the simulation were listed in Table S1. Using these parameters, the simulation of PK profiles of rat and dog are well fit to the data from in vivo at higher dose (Figure S4). The simulation of C118P and C118, the transformation rate of C118P to C118 is calculated and transformation ratio (k) is about 18.3671/h and12.588 1/h for rats and dogs, respectively.
Figure S4. The simulation of PK profile at 20 mg/kg in rat(A) and 6 mg/kg(B) in dog based on initial parameters calculated by Winnonlin. (s1 represent the simulated data for C118 and s2 represent the simulated data for C118P, plasma 1 represent the experimental data for C118 and plasma 2 represent the experimental data for C118P.) […]

[5] = nude mice, tumor, i.v. C118P 75 mg/kg, n = 4

`COc1cc(OC)cc(-c2nc[nH]c2-c2ccc(OC)c(OP(=O)([O-])[O-])c2)c1.[Na+].[Na+]` [C118P] showed a half-life ([1]; BALB/cA nude, mouse, in vivo, iv, 75 mg/kg, nude mice, plasma, i.v. C118P 75 mg/kg, n = 4) of 118 ± 64.2 min, a half-life ([1]; BALB/cA nude, mouse, in vivo, iv, 75 mg/kg, nude mice, tumor, i.v. C118P 75 mg/kg, n = 4) of 69.6 ± 45.6 min and an AUC(0-inf) ([1]; BALB/cA nude, mouse, in vivo, iv, nude mice, plasma, i.v. C118P 75 mg/kg, n = 4, read-out: AUC0-inf) of 13500 ng·h/mL. It also gave a clearance ([1]; BALB/cA nude, mouse, in vivo, iv, nude mice, plasma, i.v. C118P 75 mg/kg, n = 4, read-out: CL (converted)) of 96.9 mL/min/kg, a concentration at 2 min ([1]; BALB/cA nude, mouse, in vivo, nude mice, plasma, i.v. C118P 75 mg/kg, n = 4) of 106 µg/mL and a concentration at 2 min ([1]; BALB/cA nude, mouse, in vivo, nude mice, tumor, i.v. C118P 75 mg/kg, n = 4) of 292 ± 80.2 ng/g. For the same compound, the V ([1]; nude mice, plasma, i.v. C118P 75 mg/kg, n = 4) was 15,404.8 ± 7499.6 mL/kg, the AUC(0-inf) [1, 5] was 217.7 ± 9.3 ng·h/g and the stability in plasma [2] was “stable”. The “stability in liver microsomes” value ([3]; rat liver microsomes (Figure S1)) was “quite stable”, the K12 [4] was 6.535 h⁻¹ and the K21 [4] was 18.281 h⁻¹. The V1 [4] was 54.41 mL/kg, the K10 [4] was 18.369 h⁻¹ and the “transformation ratio (k) of C118P to C118” value ([4]; rats, simulated with tandem two-compartment model) was roughly 18.367 h⁻¹.
With `COc1cc(OC)cc(-c2nc[nH]c2-c2ccc(OC)c(O)c2)c1` [C118] the concentration at 2 min ([1]; BALB/cA nude, mouse, intravenous, nude mice, plasma, i.v. C118P 75 mg/kg, n = 4) was 42.5 µg/mL, the concentration at 2 min ([1]; BALB/cA nude, mouse, intravenous, nude mice, tumor, i.v. C118P 75 mg/kg, n = 4) was 13800 ng/g and the half-life ([1]; BALB/cA nude, mouse, iv, nude mice, plasma, i.v. C118P 75 mg/kg, n = 4) was 58.2 ± 6 min. For the same compound, the AUC(0-inf) ([1]; BALB/cA nude, mouse, iv, nude mice, plasma, i.v. C118P 75 mg/kg, n = 4, read-out: AUC0-inf) was 13400 ng·h/mL, the half-life ([1]; BALB/cA nude, mouse, iv, nude mice, tumor, i.v. C118P 75 mg/kg, n = 4) was 222 ± 88.8 min and the clearance ([1]; BALB/cA nude, mouse, plasma, iv, 75 mg/kg, mice, in vivo, compared with extrapolated CLH, read-out: Observed CL) was 88.8 mL/min/kg. The AUC(0-inf) [1, 5] was 73,027.8 ± 24,951.2 ng × h/g, the stability in plasma [2] was “stable” and the half-life ([3]; Sprague-Dawley, rat liver microsomes, 1.0 mg protein/mL, C118 disappearance) was 10.3 min. For the same compound, the “CLint, in vitro” value ([3]; rat liver microsomes) was 67.0 μL·min^−1·mg^−1 Protein, the CLint ([3]; rat, scaled from CLint, in vitro) was 115.3 mL/min/kg and the “Extrapolated CLH” value ([3]; rat, well-stirred liver model) was 43.6 mL/min/kg. The K12 [4] was 0.3516 h⁻¹, the K21 [4] was 0.0121 h⁻¹ and the V1 [4] was 2708 mL/kg. For the same compound, the K10 [4] was 0.9897 h⁻¹.
